This test has as its target T1, CRL4B complex (CUL4B, DDB1) (Homo sapiens, UniProt Q13620+Q16531).
T1 construct: endogenous in cells; host or cells: KBM7 WT cells
Briefly: Chemoproteomics with IC021313.2 photoaffinity probe, competitive setup. The class given is binding. The note with it: KBM7 WT; 100 μM competitor, 10 μM photoprobe. The source says:
Another explanation would be (2) functional redundancy, where our identified small-molecules modulate more than one SR in an interchangeable manner (either directly or indirectly). Lastly (3), it could be that the tested molecules endow a neomorphic function of the CRL4B complex by binding to a non-SR component. In order to disentangle these hypotheses, and to test if the assayed molecules would directly bind to/physically engage the CRL4B complex, IC021313.2 was derivatized with a moiety consisting of a photoactive diazirine group and an alkyl handle (FIG. 7). The ensuing functionalized molecule was used to purify proteins physically binding to the compound (“interactors”). In order to gain increased confidence, a competitive setup was chosen where cells were initially treated with the parental, non-modified compound or vehicle control. Compound treatment (1h) at excess concentrations of 100 μM was expected to saturate binding sites. Subsequently, cells (both vehicle- and compound-treated) were treated with the functionalized probe for 1 h at 10 μM, followed by UV-crosslinking. Next, cells were lysed and a biotin-azide linker was attached via click chemistry, and interacting proteins (“interactors”) were purified via biotin enrichment over a Streptavidin column and subjected to unbiased detection via label-free proteomics analysis. […]

T1 sequence (Q13620 whole entry): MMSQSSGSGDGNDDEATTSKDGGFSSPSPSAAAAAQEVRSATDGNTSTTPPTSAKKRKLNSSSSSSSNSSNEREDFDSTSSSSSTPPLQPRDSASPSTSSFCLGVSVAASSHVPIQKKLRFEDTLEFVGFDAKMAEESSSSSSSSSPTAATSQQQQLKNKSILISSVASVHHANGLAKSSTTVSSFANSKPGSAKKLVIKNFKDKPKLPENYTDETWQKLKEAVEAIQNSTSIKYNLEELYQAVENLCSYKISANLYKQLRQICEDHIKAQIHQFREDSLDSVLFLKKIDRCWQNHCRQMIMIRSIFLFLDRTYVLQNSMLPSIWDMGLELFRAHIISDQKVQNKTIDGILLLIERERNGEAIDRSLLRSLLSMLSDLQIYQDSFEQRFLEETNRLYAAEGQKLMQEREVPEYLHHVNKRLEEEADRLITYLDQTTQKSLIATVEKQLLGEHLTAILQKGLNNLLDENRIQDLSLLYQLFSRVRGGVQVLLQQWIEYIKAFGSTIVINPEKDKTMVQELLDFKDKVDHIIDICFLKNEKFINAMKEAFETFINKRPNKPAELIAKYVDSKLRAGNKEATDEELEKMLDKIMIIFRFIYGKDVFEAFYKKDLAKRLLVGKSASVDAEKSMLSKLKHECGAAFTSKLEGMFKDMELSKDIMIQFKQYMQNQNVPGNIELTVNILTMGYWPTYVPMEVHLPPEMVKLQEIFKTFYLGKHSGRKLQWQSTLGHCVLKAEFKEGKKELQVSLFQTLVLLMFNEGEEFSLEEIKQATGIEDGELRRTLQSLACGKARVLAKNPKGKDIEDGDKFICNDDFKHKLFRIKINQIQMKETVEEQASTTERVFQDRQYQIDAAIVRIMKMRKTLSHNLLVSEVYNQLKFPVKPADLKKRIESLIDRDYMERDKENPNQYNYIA
T1 sequence (Q16531 2-1140 limits assumed): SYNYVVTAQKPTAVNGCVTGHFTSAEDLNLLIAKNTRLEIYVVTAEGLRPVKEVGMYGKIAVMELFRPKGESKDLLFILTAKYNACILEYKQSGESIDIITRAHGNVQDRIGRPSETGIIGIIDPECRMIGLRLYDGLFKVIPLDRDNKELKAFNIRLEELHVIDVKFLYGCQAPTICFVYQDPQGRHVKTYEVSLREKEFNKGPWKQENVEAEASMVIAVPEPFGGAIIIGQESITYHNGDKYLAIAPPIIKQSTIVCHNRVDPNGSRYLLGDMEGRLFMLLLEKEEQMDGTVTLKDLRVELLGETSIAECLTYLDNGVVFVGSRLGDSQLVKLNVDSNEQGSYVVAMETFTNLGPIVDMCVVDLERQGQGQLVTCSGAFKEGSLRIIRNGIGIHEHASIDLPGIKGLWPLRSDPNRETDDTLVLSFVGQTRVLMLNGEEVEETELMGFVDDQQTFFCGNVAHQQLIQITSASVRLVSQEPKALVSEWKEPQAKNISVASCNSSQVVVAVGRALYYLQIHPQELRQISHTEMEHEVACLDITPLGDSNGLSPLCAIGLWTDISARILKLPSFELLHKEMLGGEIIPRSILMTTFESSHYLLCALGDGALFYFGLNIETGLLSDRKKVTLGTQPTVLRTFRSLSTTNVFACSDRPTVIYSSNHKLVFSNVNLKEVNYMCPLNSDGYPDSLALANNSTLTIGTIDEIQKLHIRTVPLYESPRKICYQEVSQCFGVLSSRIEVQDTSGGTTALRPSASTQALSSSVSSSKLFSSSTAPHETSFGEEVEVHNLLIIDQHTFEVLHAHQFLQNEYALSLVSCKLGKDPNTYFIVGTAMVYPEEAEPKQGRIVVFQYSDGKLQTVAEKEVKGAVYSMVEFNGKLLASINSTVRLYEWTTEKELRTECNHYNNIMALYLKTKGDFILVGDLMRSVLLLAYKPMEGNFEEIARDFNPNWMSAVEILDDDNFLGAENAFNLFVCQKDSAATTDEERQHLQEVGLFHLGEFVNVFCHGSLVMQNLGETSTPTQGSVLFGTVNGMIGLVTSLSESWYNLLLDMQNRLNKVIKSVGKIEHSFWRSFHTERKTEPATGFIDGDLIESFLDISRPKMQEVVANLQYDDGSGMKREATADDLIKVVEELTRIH
T1 sequence (Q9NYV4 whole entry partner): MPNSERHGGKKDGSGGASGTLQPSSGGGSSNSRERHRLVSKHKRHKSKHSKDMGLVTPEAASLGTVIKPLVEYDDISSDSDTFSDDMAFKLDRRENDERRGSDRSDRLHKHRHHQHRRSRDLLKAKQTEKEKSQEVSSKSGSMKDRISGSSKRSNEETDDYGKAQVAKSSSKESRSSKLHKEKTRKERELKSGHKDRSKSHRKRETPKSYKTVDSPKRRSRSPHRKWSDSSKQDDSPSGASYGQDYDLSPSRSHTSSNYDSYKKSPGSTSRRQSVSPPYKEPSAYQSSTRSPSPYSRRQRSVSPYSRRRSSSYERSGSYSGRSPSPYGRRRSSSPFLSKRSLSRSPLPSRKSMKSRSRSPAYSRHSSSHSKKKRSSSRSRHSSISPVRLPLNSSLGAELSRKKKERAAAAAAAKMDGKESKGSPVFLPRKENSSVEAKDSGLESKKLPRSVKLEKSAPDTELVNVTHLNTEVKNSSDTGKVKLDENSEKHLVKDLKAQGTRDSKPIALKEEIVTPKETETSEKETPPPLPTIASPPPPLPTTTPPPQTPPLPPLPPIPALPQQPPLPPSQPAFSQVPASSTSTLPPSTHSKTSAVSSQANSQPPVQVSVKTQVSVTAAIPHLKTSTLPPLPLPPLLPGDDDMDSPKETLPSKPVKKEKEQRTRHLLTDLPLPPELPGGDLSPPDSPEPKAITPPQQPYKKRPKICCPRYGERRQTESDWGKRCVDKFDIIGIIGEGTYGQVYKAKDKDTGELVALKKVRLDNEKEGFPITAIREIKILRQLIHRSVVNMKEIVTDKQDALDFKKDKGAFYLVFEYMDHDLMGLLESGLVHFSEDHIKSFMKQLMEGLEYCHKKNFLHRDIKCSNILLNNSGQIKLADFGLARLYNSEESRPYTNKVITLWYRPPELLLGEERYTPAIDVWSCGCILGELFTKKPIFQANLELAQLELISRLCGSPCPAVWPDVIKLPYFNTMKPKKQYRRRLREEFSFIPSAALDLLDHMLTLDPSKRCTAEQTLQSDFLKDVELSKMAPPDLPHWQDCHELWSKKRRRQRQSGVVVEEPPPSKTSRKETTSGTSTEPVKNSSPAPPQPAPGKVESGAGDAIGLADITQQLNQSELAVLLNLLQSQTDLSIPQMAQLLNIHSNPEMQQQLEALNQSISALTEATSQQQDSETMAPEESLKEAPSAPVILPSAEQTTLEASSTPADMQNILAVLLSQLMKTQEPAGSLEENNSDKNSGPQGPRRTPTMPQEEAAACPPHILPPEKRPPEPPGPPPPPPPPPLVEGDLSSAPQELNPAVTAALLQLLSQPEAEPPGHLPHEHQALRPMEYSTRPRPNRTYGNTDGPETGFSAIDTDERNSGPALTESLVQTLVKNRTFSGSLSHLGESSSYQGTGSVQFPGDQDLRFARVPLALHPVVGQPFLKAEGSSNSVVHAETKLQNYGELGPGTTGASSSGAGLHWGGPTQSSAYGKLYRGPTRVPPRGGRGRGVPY
T1 sequence (O75909 whole entry partner): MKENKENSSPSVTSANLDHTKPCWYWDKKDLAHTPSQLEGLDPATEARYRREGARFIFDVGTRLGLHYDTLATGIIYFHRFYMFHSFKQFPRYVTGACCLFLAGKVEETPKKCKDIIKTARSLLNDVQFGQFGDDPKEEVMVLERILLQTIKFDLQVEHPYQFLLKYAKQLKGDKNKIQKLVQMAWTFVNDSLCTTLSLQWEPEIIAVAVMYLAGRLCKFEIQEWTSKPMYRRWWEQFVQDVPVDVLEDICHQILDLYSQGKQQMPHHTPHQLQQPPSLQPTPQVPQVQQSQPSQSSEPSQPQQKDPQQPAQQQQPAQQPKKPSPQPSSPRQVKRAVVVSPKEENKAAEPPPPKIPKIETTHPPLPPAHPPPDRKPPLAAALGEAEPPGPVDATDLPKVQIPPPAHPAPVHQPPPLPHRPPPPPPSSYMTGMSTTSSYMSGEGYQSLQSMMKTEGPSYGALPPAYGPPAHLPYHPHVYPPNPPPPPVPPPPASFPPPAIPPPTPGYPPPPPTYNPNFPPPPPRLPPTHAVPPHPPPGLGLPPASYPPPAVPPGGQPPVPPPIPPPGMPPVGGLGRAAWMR

Turning to `O=C(CSc1nc2ccccc2[nH]1)Nc1ccc(Cl)cn1` [IC021313.2], the “physical engagement of CRL4B complex (competitive photoprobe pulldown, MS)” value is listed as “physically engages with a CRL4B complex”.

These data come from US12410152B2, “Oxazole and thioazole-type cullin ring ubiquitin ligase compounds and uses thereof” (Proxygen GmbH, priority 2019, dated 2025).
